US10913738B2 (BRISTOL-MYERS SQUIBB COMPANY, priority 2017, dated 2021)

These molecules were tested against T1, His-GST-TVMV-hRIPK1(1-324) (Homo sapiens, UniProt Q13546) (assay: RIPK1 HTRF Binding Assay). Settings: x marks IC50 class 20-200 nM; read-out: RIPK1 HTRF binding 20-200 nM.
T1 construct: The coding region of human RIPK1(1-324) flanked by NdeI site at 5′ end; made in house; host or cells: Spodoptera frugiperda (Sf9) insect cells, baculovirus
T1 sequence (Q13546 1-324): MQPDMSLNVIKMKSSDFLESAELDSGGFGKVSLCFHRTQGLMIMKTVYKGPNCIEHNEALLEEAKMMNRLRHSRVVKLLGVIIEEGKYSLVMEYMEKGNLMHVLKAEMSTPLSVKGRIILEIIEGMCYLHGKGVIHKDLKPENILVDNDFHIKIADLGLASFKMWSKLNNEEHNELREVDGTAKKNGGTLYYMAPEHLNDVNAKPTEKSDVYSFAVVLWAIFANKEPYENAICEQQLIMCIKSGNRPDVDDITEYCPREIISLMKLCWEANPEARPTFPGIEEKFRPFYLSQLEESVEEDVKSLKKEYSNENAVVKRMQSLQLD
Description: The plate was incubated at rt for 1 h.
Cloning and Baculovirus Expression of RIPK1 Construct
Baculovirus was generated for the construct using the Bac-to-Bac baculovirus expression system (Invitrogen) according to the manufacturer's protocol. Briefly, recombinant bacmid was isolated from transformed DH10Bac E. coli competent cells (Invitrogen) and used to transfect Spodoptera frugiperda (Sf9) insect cells (Invitrogen). Baculovirus was harvested 72 hours post transfection and a virus stock was prepared by infecting fresh Sf9 cells at a 1/1000 (v/v) ratio for 66 hours.
The production was carried out either at a 10 L scale in a 22 L cellbag (GE Healthcare Bioscience, Pittsburgh, Pa.) or at a 20 L scale in a 50 L cellbag using WAVE-Bioreactor System 20/50 (GE Healthcare Bioscience). The infected cells were harvested by centrifugation at 2000 rpm for 20 min at 4° C. in a SORVALL® RC12BP centrifuge. The cell pellets was stored at −70° C. before protein was purified.
RIPK1 containing cell paste was resuspended in 50 mM Tris pH 7.5, 150 mM NaCl, 10 mM imidazole, 5% glycerol, 5 mM MgSO4, 1 mM TCEP, 25 U/ml Benzonase, and Complete Protease Inhibitor tablets (1/50 ml, Roche Diagnostics, Indianapolis, Ind.). […] The suspension was clarified by centrifugation at 136,000×g for 40 min, at 4° C. The lysate was decanted from the pellet and passed through a 5 ml NiNTA Superflow cartridge (Qiagen, Valencia, Calif.) using an AKTA Pure (GE Healthcare). Column was eluted with 10 CV linear gradient into 50 mM Tris 7.5, 150 mM NaCl, 500 mM imidazole, 5% glycerol, 1 mM TCEP. Peak fractions were pooled and loaded directly onto 5 ml GSTrap 4B column (GE Healthcare). Column was washed with 50 mM Tris 7.0, 150 mM NaCl, 5% glycerol, 1 mM DTT and eluted in 10 CV linear gradient into 50 mM Tris 8.0, 150 mM NaCl, 20 mM reduced glutathione, 5% glycerol, 1 mM DTT. Fractions identified by SDS-PAGE as containing RIPK1 were pooled and concentrated using 30 kDa MWCO spin concentrators (Amicon Ultra-15, Millipore, Billerica, Mass.) and loaded onto a HiLoad 26/600 Superdex 200 column (GE Healthcare) equilibrated in 25 mM Tris 7.5, 150 mM NaCl, 2 mM TCEP, 5% glycerol.
Protein was aliquoted and stored at −80° C.

Molecule | IC50
COc1ncc(-c2ccn3nc(N)nc3c2)cc1C(=O)NCC[C@H](O)c1ccc(Cl)cc1 [Example 157, 5-{2-amino-[1,2,4]triazolo[1,5-a]pyridin-7-yl}-N-[(3S)-3-(4-chlorophenyl)-3-hydroxypropyl]-2-methoxypyridine-3-carboxamide] | 20 to 200 nM
COc1nc(C)c(-c2ccn3nc(N)nc3c2)cc1C(=O)NCC[C@H](O)c1ccc(Cl)cc1 [Example 193, 5-{2-amino-[1,2,4]triazolo[1,5-a]pyridin-7-yl}-N-[(3S)-3-(4-chlorophenyl)-3-hydroxypropyl]-2-methoxy-6-methylpyridine-3-carboxamide] | 20 to 200 nM
Cc1nc(C)c(-c2ccn3nc(N)nc3c2)cc1C(=O)NCC[C@@H](O)c1ccc(Cl)cc1 [Example 178, 5-{2-amino-[1,2,4]triazolo[1,5-a]pyridin-7-yl}-N-[(3R)-3-(4-chlorophenyl)-3-hydroxypropyl]-2,6-dimethylpyridine-3-carboxamide] | 20 to 200 nM

Same assay, conditions: x marks IC50 class <20 nM; read-out: RIPK1 HTRF binding <20 nM

Molecule | IC50
Cc1ncc(-c2ccn3nc(N)nc3c2)cc1C(=O)NC(C)c1cc(C(F)(F)F)ccc1F (single isomer, unassigned) [Example 99-2, 5-{2-amino-[1,2,4]triazolo[1,5-a]pyridin-7-yl}-N-{1-[2-fluoro-5-(trifluoromethyl)phenyl]ethyl}-2-methylpyridine-3-carboxamide] | < 20 nM
5-(2-amino-[1,2,4]triazolo[1,5-a]pyridin-7-yl)-2-methoxy-N-(2-(pyrrolidine-1-carbonyl)benzyl)nicotinamide [Example 379] | < 20 nM
Cc1nc(C)c(-c2ccn3nc(N)nc3c2)cc1C(=O)NCC[C@H](O)c1ccc(Cl)cc1 [Example 179, 5-{2-amino-[1,2,4]triazolo[1,5-a]pyridin-7-yl}-N-[(3S)-3-(4-chlorophenyl)-3-hydroxypropyl]-2,6-dimethylpyridine-3-carboxamide] | < 20 nM
(R)-5-(2-amino-[1,2,4]triazolo[1,5-a]pyridin-7-yl)-N-(1-(2-fluoro-5-(trifluoromethoxy)phenyl)ethyl-2,2,2-d3)-2-methoxynicotinamide [Example 345] | < 20 nM
(R)-2-(2-amino-[1,2,4]triazolo[1,5-a]pyridin-7-yl)-N-(1-(2-fluoro-5-(trifluoromethyl)phenyl)ethyl)-5-methylisonicotinamide [Example 396] | < 20 nM
COc1ncc(-c2ccn3nc(N)nc3c2)cc1C(=O)NC(C)c1cc(OC(F)(F)F)ccc1F (single isomer, unassigned) [Example 89-2, 5-{2-amino-[1,2,4]triazolo[1,5-a]pyridin-7-yl}-N-{1-[2-fluoro-5-(trifluoromethoxy)phenyl]ethyl}-2-methoxypyridine-3-carboxamide] | < 20 nM
(S)-2-(2-amino-[1,2,4]triazolo[1,5-a]pyridin-7-yl)-N-(3-(4-chlorophenyl)-3-hydroxypropyl)-5-methylisonicotinamide [Example 397] | < 20 nM
5-(2-amino-[1,2,4]triazolo[1,5-a]pyridin-7-yl)-N-(3,5-difluoro-2-isobutoxybenzyl)-2-methoxynicotinamide [Example 341] | < 20 nM
Cc1ncc(-c2ccn3nc(N)nc3c2)cc1C(=O)NCCC(C)c1ccccc1 (centres unmarked) [Example 82, 5-{2-Amino-[1,2,4]triazolo[1,5-a]pyridin-7-yl}-2-methyl-N-(3-phenylbutyl)pyridine-3-carboxamide] | < 20 nM
[2H]C([2H])([2H])Oc1nc(C)c(-c2ccn3nc(N)nc3c2)cc1C(=O)NC(C)c1cc(OC(F)(F)F)ccc1F (single isomer, unassigned) [Example 97-2, 5-{2-amino-[1,2,4]triazolo[1,5-a]pyridin-7-yl}-N-{1-[2-fluoro-5-(trifluoromethoxy)phenyl]ethyl}-2-(deutero)methoxy-6-methylpyridine-3-carboxamide] | < 20 nM

Same assay, conditions: x marks IC50 class >200 nM; read-out: RIPK1 HTRF binding >200 nM

Molecule | IC50
COc1ncc(-c2ccn3nc(N)nc3c2)cc1C(=O)NCCC(O)c1ccc(Cl)cn1 (centres unmarked) [Example 75, 5-{2-Amino-[1,2,4]triazolo[1,5-a]pyridin-7-yl}-N-[3-(5-chloropyridin-2-yl)-3-hydroxypropyl]-2-methoxypyridine-3-carboxamide] | > 200 nM

Each molecule was assayed on MLKL phosphorylation in HT29-L23 human colorectal adenocarcinoma cells (assay: MLKL Phosphorylation High-Content Assay). Settings: Homo sapiens, x marks IC50 class 20-200 nM, read-out: pMLKL cell activity 20-200 nM.
Format: cell-based
Description: MLKL Phosphorylation High-Content Assay
Following six hours incubation at 37° C. […] MLKL phosporylation was detected using anti-MLKL (phospho S358) antibody (Abcam #ab187091) (1:1000 dilution in Blocking Buffer [PBS supplemented with 0.1% BSA]) with overnight incubation at 4° C. […] Following another three cycles of washes in PBS, the microplates were sealed, and cellular images were acquired in the Cellomics ArrayScan VTI high-content imager equipped with an X1 camera. […] The image sets were analyzed using the Compartmental Analysis Bioapplication software (Cellomics). The level of MLKL phosphorylation was quantified as MEAN CircRingAvgIntenRatio. […] The data were fitted using the 4-parameter logistic equation to calculate the IC50 and Ymax values.

Molecule | IC50
COc1ncc(-c2ccc3nc(N)nn3c2)cc1NC(=O)Cc1cc(OC(F)(F)F)ccc1F [Example 418, N-(5-(2-amino-[1,2,4]triazolo[1,5-a]pyridin-6-yl)-2-methoxypyridin-3-yl)-2-(2-fluoro-5-(trifluoromethoxy)phenyl)acetamide] | 20 to 200 nM
Cc1ncc(-c2ccn3nc(N)nc3c2)cc1C(=O)Nc1cn(Cc2ccccc2)cn1 [Example 319, 5-(2-amino-[1,2,4]triazolo[1,5-a]pyridin-7-yl)-N-(1-benzyl-1H-imidazol-4-yl)-2-methylnicotinamide] | 20 to 200 nM
Cc1nc(C)c(-c2ccn3nc(N)nc3c2)cc1C(=O)NCc1cc(F)cc(F)c1O[C@H]1CCOC1 [Example 295, (S)-5-(2-amino-[1,2,4]triazolo[1,5-a]pyridin-7-yl)-N-(3,5-difluoro-2-((tetrahydrofuran-3-yl)oxy)benzyl)-2,6-dimethylnicotinamide] | 20 to 200 nM

Same assay, conditions: Homo sapiens, x marks IC50 class <20 nM, read-out: pMLKL cell activity <20 nM

Molecule | IC50
COc1ncc(-c2ccn3nc(N)nc3c2)cc1C(=O)NCC(C)Cc1ccccc1 (centres unmarked) [Example 113, 5-{2-amino-[1,2,4]triazolo[1,5-a]pyridin-7-yl}-2-methoxy-N-(2-methyl-3-phenylpropyl)pyridine-3-carboxamide] | < 20 nM
Nc1nc2cc(-c3cnc(Cl)c(C(=O)Nc4cnn(Cc5ccccc5)c4)c3)ccn2n1 [Example 83, 5-{2-Amino-[1,2,4]triazolo[1,5-a]pyridin-7-yl}-N-(1-benzyl-1H-pyrazol-4-yl)-2-chloropyridine-3-carboxamide] | < 20 nM
COc1ncc(-c2ccn3nc(N)nc3c2)cc1C(=O)NCCC(C)c1ccccc1 (centres unmarked) [Example 85, 5-{2-Amino-[1,2,4]triazolo[1,5-a]pyridin-7-yl}-2-methoxy-N-(3-phenylbutyl)pyridine-3-carboxamide] | < 20 nM

Same assay, conditions: Homo sapiens, x marks IC50 class >200 nM, read-out: pMLKL cell activity >200 nM

Molecule | IC50
COc1ncc(-c2ccn3nc(N)nc3c2)cc1C(=O)NC[C@H]1C[C@@H]1c1ccc(F)cc1 [Example 112, 5-{2-amino-[1,2,4]triazolo[1,5-a]pyridin-7-yl}-N-{[(1S,2S)-2-(4-fluorophenyl)cyclopropyl]methyl}-2-methoxypyridine-3-carboxamide] | > 200 nM
COc1ncc(-c2ccn3nc(N)nc3c2)cc1C(=O)NCCC(O)c1ccc(F)cc1 (single isomer, unassigned) [Example 71-2, 5-(2-Amino-[1,2,4]triazolo[1,5-a]pyridin-7-yl)-N-(3-(4-fluorophenyl)-3-hydroxypropyl)-2-methoxynicotinamide] | > 200 nM

Same assay, conditions: x marks IC50 class <20 nM, read-out: pMLKL cell activity <20 nM

Molecule | IC50
COc1nc(C)c(-c2ccn3nc(N)nc3c2)cc1C(=O)NCc1cccc(F)c1C(=O)N1CCC(F)(F)C1 [Example 382, 5-(2-amino-[1,2,4]triazolo[1,5-a]pyridin-7-yl)-N-(2-(3,3-difluoropyrrolidine-1-carbonyl)-3-fluorobenzyl)-2-methoxy-6-methlnicotinamide] | < 20 nM
